Test results reported in patent US20090227647A1, “Compounds, Compositions and Methods for the Treatment of Islet Amyloid Polypeptide (IAPP) Accumulation in Diabetes” (priority 2008, published 2009).

Tests used:
Amylin/IAPP fibrils = molecular target: T1, Amylin/IAPP fibrils (Homo sapiens, UniProt P10997); assay: Congo red binding assay, Amylin/IAPP fibrils; assay type: biochemical; settings: 3-day incubation
T1 sequence (P10997 34-70 limits assumed): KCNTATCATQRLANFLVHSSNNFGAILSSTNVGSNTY
Procedure: In the Congo red binding assay the ability of a given test compound to alter amyloid binding to Congo red was quantified. In this assay, IAPP fibrils and test compounds were incubated for 3 days and then vacuum filtered through a 0.2 μm filter. The amount of IAPP fibrils retained in the filter was then quantitated following staining of the filter with Congo red. After appropriate washing of the filter, any lowering of the Congo red color on the filter in the presence of the test compound (compared to the Congo red staining of the amyloid protein in the absence of the test compound) was indicative of the test compound's ability to diminish/alter the amount of aggregated and congophilic IAPP fibrils.
In the Congo red binding assay the ability of a test compound to alter Amylin/IAPP binding to Congo red is quantified. In this assay, Amylin/IAPP and test compounds were incubated for 3 days and then vacuum filtered through a 0.2 μm filter. The amount of Amylin/IAPP retained in the filter was then quantitated following staining of the filter with Congo red. After appropriate washing of the filter, any lowering of the Congo red color retained on the filter in the presence of the test compound (compared to the Congo red staining of the Amylin/IAPP protein in the absence of the test compound) was indicative of the test compound's ability to diminish/alter the amount of aggregated and/or congophilic Amylin/IAPP.

[1] = molecular target: T2, pre-fibrillized Amylin/IAPP fibrils (Homo sapiens, UniProt P10997); assay: Thioflavin T fluorometry, disruption/disassembly of pre-formed Amylin/IAPP fibrils; assay type: biochemical; settings: for % Inhibition Amylin/IAPP (result ± S.D.), Thioflavin T fluorometry: 3-day incubation at 37° C.; for disruption/disassembly of preformed Amylin/IAPP fibrils (result in words), Thioflavin T fluorometry: all concentrations tested (wt/wt ratios 1:1 to 1:0.001)
T2 construct: purchased Bachem Inc
T2 sequence (P10997 34-70 limits assumed): T1 sequence (P10997 34-70 limits assumed)
Procedure: The biological activity of the compounds provided herein as disruptors/inhibitors of IAPP amyloid protein fibrils, was assessed by determining the efficacy of the compounds to cause a disassembly/disruption of pre-formed IAPP amyloid fibrils. […] In this assay Thioflavin T binds specifically to fibrillar amyloid, and this binding produces a fluorescence enhancement at 485 nm that is directly proportional to the amount of fibrils present. The higher the fluorescence, the greater the amount of fibrils present (Naki et al, Lab. Invest. 65:104-110, 1991; Levine III, Protein Sci. 2:404-410, 1993; Amyloid: Int. J. Exp. Clin. Invest. 2:1-6, 1995).
In this assay Thioflavin T binds specifically to fibrillar amyloid, and this binding produces a fluorescence enhancement at 485 nm that is directly proportional to the amount of amyloid fibrils formed. The higher the fluorescence, the greater the amount of amyloid fibrils formed (Naki et al., Lab. Invest. 65:104-110, 1991; Levine III, Protein Sci. 2:404-410, 1993; Amyloid: Int. J. Exp. Clin. Invest. 2:1-6, 1995). The same premise is applied to Amylin/IAPP fibrils.
Following 3-days of co-incubation, 50 μl of each incubation mixture was transferred into a 96-well microtiter plate containing 150 μl of distilled water and 50 μl of a Thioflavin T solution (i.e. 500 mM Thioflavin T in 250 mM phosphate buffer, pH 6.8). The fluorescence was read at 485 nm (444 nm excitation wavelength) using an ELISA plate fluorometer after subtraction with buffer alone or compound alone, as blank.

[2] = Amylin/IAPP:test compound wt/wt ratio 1:0.001
[3] = Amylin/IAPP:test compound wt/wt ratio 1:0.01
[4] = Amylin/IAPP:test compound wt/wt ratio 1:0.1
[5] = Amylin/IAPP:test compound wt/wt ratio 1:1

Row | Compound | % Inhibition Amylin/IAPP (result ± S.D.), Congo red binding (Amylin/IAPP fibrils; [2]) [%] | % Inhibition Amylin/IAPP (result ± S.D.), Congo red binding (Amylin/IAPP fibrils; [3]) [%] | % Inhibition Amylin/IAPP (result ± S.D.), Congo red binding (Amylin/IAPP fibrils; [4]) [%] | % Inhibition Amylin/IAPP (result ± S.D.), Congo red binding (Amylin/IAPP fibrils; [5]) [%] | % Inhibition Amylin/IAPP (result ± S.D.), Thioflavin T fluorometry [1, 2] [%] | % Inhibition Amylin/IAPP (result ± S.D.), Thioflavin T fluorometry [1, 3] [%] | % Inhibition Amylin/IAPP (result ± S.D.), Thioflavin T fluorometry [1, 4] [%] | % Inhibition Amylin/IAPP (result ± S.D.), Thioflavin T fluorometry [1, 5] [%] | disruption/disassembly of preformed Amylin/IAPP fibrils (result in words), Thioflavin T fluorometry [1]
1 | O=C(Nc1ccc(O)c(O)c1)c1cccc(O)c1O [Compound 1, 2,3 dihydroxybenzoic Acid 3,4 Dihydroxyanilide] | 0.0 ± 6.44 | 7.8 ± 6.13 | 35.7 ± 5.12 | 58.1 ± 6.67 | 14.3 ± 3.56 | 60.9±0.61 | 95.1±0.48 | 98.5 ± 0.26 | most efficacious
2 | O=C(Nc1cccc(O)c1O)c1ccc(O)c(O)c1 [Compound 2, 3,4 dihydroxybenzoic Acid 2,3 Dihydroxyanilide] | 5.3 ± 6.75 | 5.2 ± 0.23 | 33.5 ± 6.38 | 45.8 ± 1.62 | 5.1 ± 4.57 | 52.9 ± 4.36 | 92.6 ± 0.84 | 99.4 ± 1.69 | –
3 | O=C(Nc1cccc(O)c1O)c1cccc(O)c1O [Compound 3, 2,3 dihydroxybenzoic Acid 2,3 Dihydroxyanilide] | 7.1 ± 4.14 | 3.6 ± 1.16 | 26.0 ± 5.79 | 60.1 ± 3.78 | 5.0 ± 6.78 | 51.7±3.56 | 94.5±0.91 | 99.3 ± 0.6 | most efficacious
4 | CN(C(=O)c1ccc(O)c(O)c1)c1ccc(O)c(O)c1 [Compound 4, 3,4 Dihydroxybenzoic Acid 3,4 Dihydroxy N-methyl Anilide] | 0.0 ± 7.35 | 8.0 ± 4.62 | 46.0±7.43 | 70.8±1.55 | 9.8 ± 7.47 | 57.4±1.61 | 95.4±0.23 | 100.0 ± 0.09 | most efficacious
5 | O=S(=O)(Nc1ccc(O)c(O)c1)c1ccc(O)c(O)c1 [Compound 5, 3,4 Dihydroxybenzenesulfonic acid 3,4 Dihydroxysulfonamide] | 3.5 ± 2.40 | 8.3 ± 6.91 | 43.4 ± 3.39 | 54.6 ± 14.22 | 14.1 ± 1.62 | 56.7±0.4 | 93.7±1.13 | 99.7 ± 0.38 | most efficacious

The next lines start with the values.

Row | % Inhibition Amylin/IAPP (result ± S.D.), Congo red binding (Amylin/IAPP fibrils; [2]) [%] | % Inhibition Amylin/IAPP (result ± S.D.), Congo red binding (Amylin/IAPP fibrils; [3]) [%] | % Inhibition Amylin/IAPP (result ± S.D.), Congo red binding (Amylin/IAPP fibrils; [4]) [%] | % Inhibition Amylin/IAPP (result ± S.D.), Congo red binding (Amylin/IAPP fibrils; [5]) [%] | % Inhibition Amylin/IAPP (result ± S.D.), Thioflavin T fluorometry [1, 2] [%] | % Inhibition Amylin/IAPP (result ± S.D.), Thioflavin T fluorometry [1, 3] [%] | % Inhibition Amylin/IAPP (result ± S.D.), Thioflavin T fluorometry [1, 4] [%] | % Inhibition Amylin/IAPP (result ± S.D.), Thioflavin T fluorometry [1, 5] [%] | disruption/disassembly of preformed Amylin/IAPP fibrils (result in words), Thioflavin T fluorometry [1] | Compound
6 | 5.2 ± 2.31 | 1.0 ± 4.82 | 36.4 ± 12.77 | 80.7 ± 0.75 | 17.2 ± 4.22 | 68.9±3.33 | 96.3±0.76 | 100.0 ± 0.26 | most efficacious | Oc1ccc(-c2cnc(-c3ccc(O)c(O)c3)[nH]2)cc1O [Compound 6, 2,4 bis(3,4 dihydroxyphenyl) Imidazole]
7 | 9.1 ± 1.29 | – | 44.1 ± 5.62 | 66.2±7.81 | 4.6 ± 4.34 | 41.4 ± 2.13 | 89.7 ± 0.54 | 99.8 ± 0.31 | – | Oc1ccc(-c2nnc(-c3ccc(O)c(O)c3)[nH]2)cc1O [Compound 7, 3,5 bis(3,4 Dihydroxyphenyl) 1,2,4 Triazole]
8 | 1.7 ± 1.98 | 20.2 ± 7.11 | 39.7 ± 7.20 | 74.9 ± 1.26 | 8.1 ± 1.54 | 48.4 ± 0.31 | 91.2 ± 0.76 | 99.0 ± 1.05 | – | Oc1ccc(-c2cc(-c3ccc(O)c(O)c3)[nH]n2)cc1O [Compound 8, 3,5 bis(3,4 Dihydroxyphenyl)Pyrazole]
9 | 16.5 ± 9.88 | 12.0 ± 8.03 | 41.2 ± 5.64 | 88.6 ± 2.08 | 4.3 ± 2.29 | 36.6 ± 3.55 | 88.5 ± 0.31 | 97.6 ± 0.31 | – | Oc1ccc(C23CC4CC(C2)CC(c2ccc(O)c(O)c2)(C4)C3)cc1O [Compound 9, 1,3 bis(3,4 dihydroxyphenyl) Adamantane]
